From US11807627B2, “Morphic forms of complement factor D inhibitors” (priority 2018, dated 2023)
Where two headings read alike, the source gives them in different places.

Legend:
Type in all cases: physicochemical
[1] = Variable humidity XRPD (VH-XRPD); conditions: between 0 and 90% RH
Procedure: […] analysis was carried out on a Philips X'Pert Pro Multipurpose diffractometer equipped with a humidity chamber. The samples were scanned between 4 and 35.99°2θ using Cu K radiation (α1λ=1.54060 Å; α2=1.54443 Å; β=1.39225 Å; α1; α2 ratio=0.5) running in Bragg-Brentano geometry (step size 0.008°2θ) using 40 kV/40 mA generator settings. Table 10 details the humidity program used.

[2] = Storage stability of Compound 3 forms (80° C., 40° C./75% RH, 25° C./60% RH, ambient)
[3] = Compression of Form A (2.5 KN, 5.0 KN); conditions: initial and repeat
Procedure: Compound 3 Form A material was compressed using a specac press. Approximately 125 mg of Compound 3 Form A was weighed into a 20 mL glass vial. The material was then transferred into an IR die and pressed to 2.5 KN for approx. 5 seconds. The resulting material was (ground lightly to break the disk that was returned and) analyzed by XRPD and PLM. The material was then placed back into the die and pressed to 5.0 KN (for approx. 5 seconds). The resulting material was ground lightly to break the disk that was returned and analyzed by XRPD and PLM. The procedure detail was repeated, using separate batches of solid for 2.5 KN and 5.0 KN experiments. XRPD analysis and PLM analysis was completed on the material returned after pressing. All samples returned Form A material by XRPD and consisted of small birefringent particles with no clear morphology by PLM (FIG. 35A-FIG. 35C).

[4] = Solubility in selected media (FaSSIF, FeSSIF, FaSSGF, pH 4 citrate, pH 6.8 phosphate)
Procedure: Solubility within selected media (FaSSIF, FeSSIF, FaSSGF, pH 4 citrate and pH 6.8 phosphate) was measured to be <0.01 mg/mL.
The pH 4 citrate buffer was prepared by dissolving sodium citrate (987 mg) and citric acid (1.28 g) in 100 mL H2O. The pH was adjusted to 4. The pH 6.8 phosphate buffer was prepared by dissolving dibasic sodium phosphate dihydrate (873 mg) and monobasic sodium phosphate monohydrate (708 mg) in 100 mL H2O. The pH was adjusted to 6.8. The FaSSIF media was prepared with sodium hydroxide (108 mg), sodium chloride (1.55 g) and monobasic sodium phosphate dihydrate (1.12 g) in H2O (0.25 L) and the pH adjusted to 6.5. FaSSIF/FeSSIF/FaSSGF (0.56 g) was dissolved in the buffer and mixed until opalescent. The FeSSIF media was prepared by dissolving sodium hydroxide (1.01 g), sodium chloride (2.96 g) and glacial acetic acid (2.97 g) in H2O (0.25 L) and the pH adjusted to pH 5. FaSSIF/FeSSIF/FaSSGF (2.81 g) was dissolved in the buffer and thoroughly mixed. The FaSSGF media was prepared by dissolving FaSSIF/FeSSIF/FaSSGF (0.06 g) in a solution of sodium chloride (2.00 g) dissolved in H2O (1 L) and mixing thoroughly.

[5] = Polymorph study: crash cooling
Procedure: Saturated solutions of Compound 3 produced from temperature cycling experiments were placed into a fridge to crash cool to 4° C. After about 4 days, observations were made and solids produced were isolated using centrifuge filtration and analyzed by XRPD. Where no solids were recovered, solutions were placed into a freezer (−20° C.) for 14 days. Any solids produced were isolated by centrifuge filtration and analyzed by XRPD (Table 19).

[6] = Process for the formation of Form J: XRPD result after each step (Table 22)
Procedure: A polymorph study was completed for Form J. The production of Form J was completed by temperature cycling amorphous Compound 3 in acetronitrile (Form B) with drying the material under ambient conditions for about 24 hours.

[7] = Polarized light microscopy (PLM); conditions: Table 27A
Procedure: The presence of crystallinity (birefringence) was determined using an Olympus BX50 microscope, equipped with cross-polarizing lenses and a Motic camera. Images were captured using Motic Images Plus 2.0. All images were recorded using the 20×objective, unless otherwise stated. All samples were prepared using silicone oil and covered with a cover slip before PLM analysis was completed.

Compound: CC(=O)c1nn(CC(=O)N2[C@H](C(=O)Nc3nc(Br)ccc3C)C[C@@]3(C)C[C@@H]23)c2ccc(-c3cnc(C)nc3)cc12 [Compound 3 Form A]
- VH-XRPD: change in form with humidity [1]: no changes in form
- 1 week stability: 25° C./60% RH XRPD (uncapped) ([2]; 1 week, WC = weakly crystalline): WC Form A
- Stability: form by XRPD after storage ([2]; 25° C./60% RH, uncapped vial): weakly crystalline Form A
- Compression: XRPD ([3]; 2.5 KN): Form A
- Compression: XRPD ([3]; 5.0 KN): Form A
- XRPD Results after stirring in media ([4]; FaSSGF): Form A
- solubility ([4]; FaSSGF): <10 µg/mL
- solubility ([4]; FaSSGF, fassgf or other biorelevant, thermodynamic from solid, read-out: Solubility: HPLC Result): < 10 µg/mL
- XRPD Results after stirring in media ([4]; FaSSIF): Form A
- solubility ([4]; FaSSIF): <10 µg/mL
- solubility ([4]; FaSSIF, pH 6.5, fassif, thermodynamic from solid, read-out: Solubility: HPLC Result): < 10 µg/mL
- XRPD Results after stirring in media ([4]; FeSSIF): Form A
- solubility ([4]; FeSSIF): <10 µg/mL
- solubility ([4]; FeSSIF, pH 5, fessif, thermodynamic from solid, read-out: Solubility: HPLC Result): < 10 µg/mL
- solubility ([4]; aqueous buffer, thermodynamic from solid, FaSSIF, FeSSIF, FaSSGF, pH 4 citrate and pH 6.8 phosphate, read-out: Solubility within selected media): < 10 µg/mL
- solubility ([4]; aqueous buffer, thermodynamic from solid, pH 6.8 phosphate buffer, read-out: Solubility: HPLC Result): < 10 µg/mL
- solubility ([4]; pH 4): Not detected
- Solubility: HPLC Result ([4]; pH 4 citrate buffer): Not detected
- XRPD Results after stirring in media ([4]; pH 4 citrate buffer): Form A
- XRPD Results after stirring in media ([4]; pH 6.8 phosphate buffer): Form A
- solubility ([4]; pH 6.8 phosphate buffer, pH 6.8, aqueous buffer, thermodynamic from solid, read-out: Solubility): < 10 µg/mL

Compound: CC(=O)c1nn(CC(=O)N2[C@H](C(=O)Nc3nc(Br)ccc3C)C[C@@]3(C)C[C@@H]23)c2ccc(-c3cnc(C)nc3)cc12 [Compound 3, (1R,3S,5R)-2-(2-(3-acetyl-5-(2-methylpyrimidin-5-yl)-1H-indazol-1-yl)acetyl)-N-(6-bromo-3-methylpyridin-2-yl)-5-methyl-2-azabicyclo[3.1.0]hexane-3-carboxamide]
- Crystallization technique: Cooling ([5]; 1-Butanol): Form A
- Crystallization technique: Cooling ([5]; 2-Methyl Tetrahydrofuran): Clear solution
- Crystallization technique: Cooling ([5]; 2-Propanol): Form A
- Crystallization technique: Cooling ([5]; 40% Ethanol / 60% Water (% v/v) calc. aw = 0.7): Amorphous
- Crystallization technique: Cooling ([5]; 50% 2-Propanol / 50% Heptane (% v/v), WC = weakly crystalline): Form A (WC)
- Crystallization technique: Cooling ([5]; 50% Acetonitrile / 50% Water (% v/v) calc. aw = 0.9): Clear solution
- Crystallization technique: Cooling ([5]; 50% Ethanol / 50% Heptane (% v/v)): Form A
- Crystallization technique: Cooling ([5]; 70% 2-Propanol / 30% Heptane (% v/v)): Clear solution
- Crystallization technique: Cooling ([5]; 70% 2-Propanol / 30% Water (% v/v) aw = 0.8): Clear solution
- Crystallization technique: Cooling ([5]; 95% 2-Propanol / 5% Heptane (% v/v)): Form A
- Crystallization technique: Cooling ([5]; 95% Heptane / 5% 2-Propanol (% v/v)): Clear solution
- Crystallization technique: Cooling ([5]; 95% Methanol / 5% Water (% v/v) calc. aw = 0.2): Clear solution
- Crystallization technique: Cooling ([5]; Acetone): Form A
- Crystallization technique: Cooling ([5]; Acetonitrile): Clear solution
- Crystallization technique: Cooling ([5]; Ethanol): Amorphous
- Crystallization technique: Cooling ([5]; Ethyl Acetate (dry)): Amorphous
- Crystallization technique: Cooling ([5]; Methanol): Clear solution
- Crystallization technique: Cooling ([5]; Methylethyl Ketone): Clear solution
- Crystallization technique: Cooling ([5]; Methylisobutyl Ketone): Clear solution
- Crystallization technique: Cooling ([5]; Tetrahydrofuran): Clear solution
- Crystallization technique: Cooling ([5]; Toluene): Amorphous
- Crystallization technique: Cooling ([5]; n-Heptane): Clear solution
- Crystallization technique: Cooling ([5]; tert-Butylmethyl Ether): Clear solution
- XRPD result ([6]; Step 1: Lyophilization): Amorphous
- XRPD result ([6]; Step 5: Re-slurry in 5 mL acetonitrile): Form J
- XRPD result ([6]; Step 8: Re-slurry in 1.5 mL acetonitrile 18 hours): Form J
- XRPD result ([6]; Step 11: Re-slurry 4 ml acetonitrile 18 hours): Form J
- XRPD result ([6]; Step 12: Air drying 2, 5 and 24 hours): Form J
- XRPD result ([6]; Step 13: After 5 days storage under ambient conditions): Amorphous
- XRPD result ([6]; Step 14: Re-slurry 4 ml acetonitrile 18 hours): Form J
- XRPD result ([6]; Step 15: Isolation using Buchner funnel (10-15 seconds on filter bed)): Amorphous
- XRPD result ([6]; Step 16: Re-slurry 4 ml acetonitrile 4 hours): Form J
- XRPD result ([6]; Step 17: Isolation using centrifuge filtration): Form J
- XRPD result ([6]; Step 18: Ambient drying 18 hours): Form J

Compound: CC(=O)c1nn(CC(=O)N2[C@H](C(=O)Nc3nc(Br)ccc3C)C[C@@]3(C)C[C@@H]23)c2ccc(-c3cnc(C)nc3)cc12 [Form B]
- PLM [7]: Birefringent rods
- solubility ([4]; FaSSGF): <10 µg/mL
- solubility ([4]; FaSSIF): <10 µg/mL
- solubility ([4]; FeSSIF): <10 µg/mL
- Solubility in selected media ([4]; pH 4, pH 6.8, FaSSIF, FeSSIF and FaSSGF media): poorly soluble
